# Literature values, collected in article PMC8170883 (Viruses, 2021).
# What was measured:
# [1] = tested on: SARS-Cov-2; conditions: cell cultures
# [2] = tested on: SARS-CoV-2 nsp12 (RdRp); conditions: blocks binding of RNA to the enzyme
Structure (SMILES),Antiviral effect against SARS-CoV-2 [1],Inhibition of RdRp [2]
"CCN(CC)CCCC(C)Nc1ccnc2cc(Cl)ccc12 (stereo not shown) [Chloroquine, chloroquine]",antiviral effects,
"CCN(CC)CCCC(C)Nc1c2ccc(Cl)cc2nc2ccc(OC)cc12 (stereo not shown) [Quinacrine, quinacrine]",antiviral effects,
Cc1ccc(C(=O)Nc2ccc(S(=O)(=O)O)c3cc(S(=O)(=O)O)cc(S(=O)(=O)O)c23)cc1NC(=O)c1cccc(NC(=O)Nc2cccc(C(=O)Nc3cc(C(=O)Nc4ccc(S(=O)(=O)O)c5cc(S(=O)(=O)O)cc(S(=O)(=O)O)c45)ccc3C)c2)c1 [Suramin],antiviral effects,potent inhibitor
